This is an account of results in PMC3131604, “The Inhibitory Effect of Non-Steroidal Anti-Inflammatory Drugs (NSAIDs) on the Monophenolase and Diphenolase Activities of Mushroom Tyrosinase” (International Journal of Molecular Sciences, 2011).

In test [1] the test system is B16F1 melanoma cells. The following applies: cited from earlier work.
In test [2] the target is T1, mushroom tyrosinase (Agaricus bisporus, UniProt C7FF04). Put plainly: diphenolase activity assay of mushroom tyrosinase (L-DOPA as substrate). The format is biochemical. Conditions: for KIS, diphenolase: Lineweaver-Burk / secondary plots; for Inhibition type, diphenolase activity: Lineweaver-Burk plots; for activity at 50 µM: at 0.05 mM; for activity at 50 µM / activity at 100 µM / activity at 200 µM / activity at 500 µM / activity at 1000 µM: read-out: diphenolase activity in presence of inhibitor; for activity at 100 µM: at 0.1 mM; for activity at 500 µM: at 0.5 mM; for activity at 1000 µM: at 1.0 mM. The method, then:
The diphenolase activity assay was performed as previously described. First, 300 μL of 2.5 mM 3,4-dihydroxyphenylalanine (L-DOPA) solution, 50 μL of DMSO with or without a sample chemical, and 1.1 mL of 0.1 M phosphate buffer (pH 6.8) were mixed. The mixture was preincubated at 25 °C for 10 min before 50 μL of 1000 units/mL mushroom tyrosinase in aqueous solution was added, and the reaction was monitored at 475 nm. A control reaction was conducted in DMSO alone. The percentage of activity of tyrosinase was calculated as follows: 100 − [(A − B)/A × 100], where A represents the difference in the absorbance of the control sample between an incubation time of 0.5 and 1.0 min, and B represents the difference in the absorbance of the test sample over the same incubation period.
(§1) The inhibition type of NSAIDs on the monophenolase and diphenolase activity was determined by the Lineweaver-Burk plots and the inhibition constants were determined from secondary plots of the apparent Km/Vmax versus the concentration of the inhibitor.

The target in test [3] is T1, mushroom tyrosinase. Put plainly: monophenolase activity assay of mushroom tyrosinase (L-tyrosine as substrate). The format is biochemical. The following applies: for effect on lag time of monophenolase activity: 0.25-1.0 mM inhibitor; for Inhibition type, monophenolase activity: Lineweaver-Burk plots; for activity at 250 µM: at 0.25 mM; for activity at 250 µM / activity at 500 µM / activity at 750 µM / activity at 1000 µM: read-out: monophenolase activity (steady-state rate) in presence of inhibitor; for activity at 500 µM: at 0.5 mM; for activity at 750 µM: at 0.75 mM; for activity at 1000 µM: at 1.0 mM; for KIS (inhibitor binding with the enzyme-substrate complex), monophenolase: secondary plot of Lineweaver-Burk slopes. On the procedure:
The monophenolase activity assay was performed with modification as reported by Chen et al.. In this assay, L-tyrosine was used as substrate in the monophenolase activity assay. First, 300 μL of 2.5 mM L-tyrosine, 25 μL of DMSO with or without a sample chemical, and 300 μL of 0.1 M phosphate buffer (pH 6.8) were mixed. The mixture was preincubated at 37 °C for 10 min before 125 μL of 1000 units/mL mushroom tyrosinase in aqueous solution added, and the reaction was performed at 37 °C. Enzyme activity was monitored at 475 nm by a UV spectrophotometer (Shimadzu, UV-1700). The lag time was determined by extrapolation of the linear portion of the dopachrome accumulation curve to the abscissa axis.
as §1

The structures appear in SMILES notation. Read-outs that look alike come from different tables or passages of the source.

T1 sequence (C7FF04 1-392): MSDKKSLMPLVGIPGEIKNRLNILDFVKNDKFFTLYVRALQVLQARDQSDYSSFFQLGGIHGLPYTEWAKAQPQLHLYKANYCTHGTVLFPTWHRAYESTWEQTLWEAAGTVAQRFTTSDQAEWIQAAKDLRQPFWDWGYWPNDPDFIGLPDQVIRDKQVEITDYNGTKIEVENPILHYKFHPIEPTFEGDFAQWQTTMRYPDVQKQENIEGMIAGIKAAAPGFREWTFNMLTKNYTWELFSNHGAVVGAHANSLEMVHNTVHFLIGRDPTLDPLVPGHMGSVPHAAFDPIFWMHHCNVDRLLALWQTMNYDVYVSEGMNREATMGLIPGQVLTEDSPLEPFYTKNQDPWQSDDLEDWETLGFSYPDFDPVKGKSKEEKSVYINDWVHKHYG
T1 sequence (G1K3P4 1-150 partner): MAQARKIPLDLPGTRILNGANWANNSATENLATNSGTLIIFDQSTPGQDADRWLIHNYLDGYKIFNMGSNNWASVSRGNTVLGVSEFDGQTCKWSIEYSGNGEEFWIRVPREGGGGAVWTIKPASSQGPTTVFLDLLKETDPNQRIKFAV

As a reminder, the inhibition is the relative decrease from the control value, in per cent. On to `CC(=O)Oc1ccccc1C(=O)O` [Acetylsalicylic acid, acetylsalicylic acid], for which, in test [1] (B16F1 melanoma cells ref 23), the effect on melanogenesis result is reported as “inhibits melanogenesis” and the “effect on tyrosinase protein expression” value is “down-regulates”. Moreover, the “inhibition of diphenolase activity (in words)” value (“inhibition … (in words)” below) in test [2] (L-DOPA substrate) is on record as “did not inhibit”. For the same compound, the inhibition at 4000 µM in test [2] (at 4 mM) was -6%.

Consider `O=C(O)Cc1ccccc1Nc1c(Cl)cccc1Cl` [Diclofenac, diclofenac], for which the effect on melanogenesis entry in test [1] is given as “inhibit melanogenesis”. In addition, the inhibition at 4000 µM in test [3] (at 4 mM) was determined as 25%.

For the compound `COc1ccc2c(c1)c(CC(=O)O)c(C)n2C(=O)c1ccc(Cl)cc1` [Indomethacin, indomethacin], in test [3], the “effect on lag time of monophenolase activity” value is recorded as “did not change”; the “Inhibition type, monophenolase activity” value is reported as “Non-competitive”; the activity at 250 µM is approximately 84%; the activity at 500 µM was approximately 72%. Also, in test [3], the activity at 750 µM is approximately 66%; the activity at 1000 µM was approximately 60%; the “KIS (inhibitor binding with the enzyme-substrate complex), monophenolase” value is given as 0.75 mM. The “IC50 of monophenolase activity relative to diphenolase activity” value in test [3] (ratio of IC50 values) is recorded as “about three times larger”. In test [2], the “KIS, diphenolase” value was 2.42 mM; the “Inhibition type, diphenolase activity” value is “Non-competitive”; the activity at 50 µM was approximately 89%; the activity at 100 µM is approximately 82%. In test [2], the activity at 500 µM is approximately 50% and the activity at 1000 µM is approximately 32%. In test [2] (at 0.2 mM), the activity at 200 µM was approximately 70%.

As to `Cc1cccc(Nc2ccccc2C(=O)O)c1C` [Mefenamic acid, mefenamic acid], the effect on melanogenesis result in test [1] is listed as “inhibit melanogenesis”. Further, the inhibition at 1000 µM in test [3] (at 1 mM) is 9%. Further, the “inhibition … (in words)” value in test [2] (at 0.2 mM) is “slightly inhibited”.

As for `O=C(O)c1cc(-c2ccc(F)cc2F)ccc1O` [Diflunisal, diflunisal], in test [3], the “effect on lag time of monophenolase activity” value is “extended”; the “Inhibition type, monophenolase activity” value is listed as “Non-competitive”; the activity at 250 µM was approximately 45%; the activity at 500 µM was approximately 34%. Further, in test [3], the activity at 750 µM is approximately 27%; the activity at 1000 µM was approximately 20%; the “KIS (inhibitor binding with the enzyme-substrate complex), monophenolase” value is listed as 0.11 mM. Besides, in test [2], the “KIS, diphenolase” value came out at 0.19 mM; the “Inhibition type, diphenolase activity” value is given as “Non-competitive”; the activity at 50 µM is approximately 77%; the activity at 100 µM was approximately 63%. In test [2], the activity at 500 µM was approximately 32% and the activity at 1000 µM was approximately 20%. The activity at 200 µM in test [2] (at 0.2 mM) was approximately 49%.

Take `CC(C)Cc1ccc(C(C)C(=O)O)cc1` (stereo not shown) [Ibuprofen, ibuprofen]: the “inhibition … (in words)” value in test [2] (L-DOPA substrate) is listed as “did not inhibit”. Besides, the inhibition at 1000 µM in test [2] (at 1 mM) turned out to be 8%.
